Measured values: patent US5916881A, “High trehalose content syrup” (Kabushiki Kaisha Hayashibara Seibutsu Kagaku Kenkyujo, priority 1996, dated 1999)
≈ marks a conversion by molar mass, not a printed value. Entries after “also recorded” stand apart in the source; their conditions may differ. Like-named read-outs stand apart in the source and are kept apart here.

Experiments:
Assay type in all cases: physicochemical
[1] = Influence of ambient temperature on the water solubility of trehalose (Experiment 1); settings: for solubility thermodynamic: water, 5 °C, saturated solution
Protocol: The water solubility of trehalose at ambient temperature was studied by placing in a glass beaker 10 parts by weight of water and 20 parts by weight of crystalline trehalose hydrate, allowing the solution to stand at 5, 10, 15, 20, 25, 30 or 40° C. while stirring, sampling the solution, filtering the sample, and measuring the trehalose content in the filtrate to determine the solubility of trehalose in 100 g water at each temperature, i.e., the amount (g) of trehalose, d.s.b., that dissolves in 100 g water to give a saturated solution at each temperature.

[2] = Trehalose crystallization inhibitory effect of coexisting saccharides in a trehalose syrup over the water solubility (Experiment 2); settings: trehalose dissolved in an amount over the water solubility; summary of Table 2
Protocol: Trehalose was dissolved by heating in water in an amount of 1.5-times the water solubility at 10° C., and the trehalose solution was allowed to stand at a relatively-cold place for checking the trehalose crystallization inhibitory effect by saccharides. […] With this relationship, testing solutions were prepared by dissolving by heating in 100 parts by weight of water in a respective glass beaker 83 parts by weight of trehalose, and a saccharide in an amount of 10% to the trehalose, i.e., 8.3 parts by weight of the saccharide selected from the group consisting of glucose, maltose, isomaltose, lactose, maltotriose, panose, maltotetraose, sorbitol, maltitol, maltotriitol, sucrose, raffinose, erlose, saccharides such as α-glucosyltrehalose or monoglucosyltrehalose, α-maltosyltrehalose or diglucosyltrehalose, and α-maltotriosyltrehalose or triglucosyltrehalose as disclosed in Japanese Patent Kokai No.143,876/95 by the present applicant; a saccharide such as α-isomaltosyl-α-glucoside or monoglucosyltrehalose as disclosed in Japanese Patent Kokai No.217,784/96 by the same applicant; and a saccharide such as α-maltosyl-α-maltoside or diglucosyltrehalose as disclosed in Japanese Patent Application No.167,486/94 by the same applicant. Each solution was allowed to stand in a thermostatic place kept at 5, 10 or 15° C. for one week, followed by macroscopically observing the presence of trehalose crystal for evaluating the trehalose crystallization inhibitory effect by the saccharides.

[3] = Influence of the concentrations of trehalose and of mono-/diglucosyltrehalose on trehalose crystallization (Experiment 3); design: key to Formation of trehalose crystal: "+" means that it crystallized; "-" means that it did not
Protocol: The trehalose crystallization inhibitory effect was experimented by dissolving trehalose under heating conditions in water in an amount of 1.5, 2.0, 2.5, 2.8 or 3.3-times the water solubility at 10° C., dissolving in the solution other oligosaccharides having a trehalose structure within their molecules in an amount of 10, 30 or 60% to the trehalose, d.s.b, and allowing the resultant solution to stand at a relatively-low temperature.
Based on the results in Experiment 1, 1.5, 2.0, 2.5, 2.8 and 3.3-times the water solubility of trehalose in 100 parts by weight of water at 10° C. water corresponded to 83, 111, 138, 155 and 182 parts by weight of trehalose anhydride, d.s.b., respectively With this relationship, testing solutions with the composition as shown in Table 3 were prepared by dissolving under heating conditions in a respective glass beaker 100 parts by weight of water, trehalose in a prescribed part by weight, and either monoglucosyltrehalose, i.e., α-glucosyltrehalose or diglucosyltrehalose, i.e., α-maltosyltrehalose in a prescribed ratio, allowing the solution to stand in a thermostatic place kept at 5, 10 or 15° C. for checking the trehalose crystallization inhibitory effect.

In the case of `OC[C@H]1O[C@H](O[C@H]2O[C@H](CO)[C@@H](O)[C@H](O)[C@H]2O)[C@H](O)[C@@H](O)[C@@H]1O` [Trehalose, α, α-trehalose], the “Water solubility (in words)” value ([1]; ambient temperature, summary of Table 1) is reported as “relatively-low water solubility”, the solubility thermodynamic ([1]; d.s.b., read-out: Amount of trehalose (g) dissolving in 100 g water) is reported as 496 mg/mL (≈ 1450 mM) and the solubility thermodynamic ([1]; read-out: Trehalose concentration (%)) is reported as 332 mg/mL (≈ 970 mM).

In the case of `OC[C@H]1O[C@H](O[C@H]2O[C@H](CO)[C@@H](O[C@H]3O[C@H](CO)[C@@H](O[C@H]4O[C@H](CO)[C@@H](O)[C@H](O)[C@H]4O)[C@H](O)[C@H]3O)[C@H](O)[C@H]2O)[C@H](O)[C@@H](O)[C@@H]1O` [α-Maltosyltrehalose, α-maltosyltrehalose], the “Trehalose crystallization inhibitory effect (in words)” value [2] is reported as “specifically and effectively inhibited”, the “Amount of trehalose, times the water solubility, beyond which crystallization of trehalose was observed” value ([3]; coexisting diglucosyltrehalose) is reported as “exceeds 2.8 times the water solubility” and the “Trehalose crystallization inhibitory effect (in words)” value ([3]; summary of Table 3, listed as diglucosyltrehalose) is reported as “satisfactory trehalose crystallization inhibitory effect; also recorded: stronger effect”. The “Formation of trehalose crystal” value ([3]; water 100, trehalose 83, coexisting saccharide 8.3 parts by weight, 5° C. (1.7-times solubility)) was “-”, the “Formation of trehalose crystal” value ([3]; water 100, trehalose 83, coexisting saccharide 8.3 parts by weight, 10° C. (1.5-times solubility)) was “-” and the “Formation of trehalose crystal” value ([3]; water 100, trehalose 83, coexisting saccharide 8.3 parts by weight, 15° C. (1.3-times solubility)) was “-”. The “Formation of trehalose crystal” value ([3]; water 100, trehalose 83, coexisting saccharide 25 parts by weight, 5° C. (1.7-times solubility)) was “-”, the “Formation of trehalose crystal” value ([3]; water 100, trehalose 83, coexisting saccharide 25 parts by weight, 10° C. (1.5-times solubility)) was “-” and the “Formation of trehalose crystal” value ([3]; water 100, trehalose 83, coexisting saccharide 25 parts by weight, 15° C. (1.3-times solubility)) was “-”. For the same molecule, the “Formation of trehalose crystal” value ([3]; water 100, trehalose 83, coexisting saccharide 50 parts by weight, 5° C. (1.7-times solubility)) was “-”, the “Formation of trehalose crystal” value ([3]; water 100, trehalose 83, coexisting saccharide 50 parts by weight, 10° C. (1.5-times solubility)) was “-” and the “Formation of trehalose crystal” value ([3]; water 100, trehalose 83, coexisting saccharide 50 parts by weight, 15° C. (1.3-times solubility)) was “-”. The “Formation of trehalose crystal” value ([3]; water 100, trehalose 111, coexisting saccharide 11 parts by weight, 5° C. (2.2-times solubility)) was “-”, the “Formation of trehalose crystal” value ([3]; water 100, trehalose 111, coexisting saccharide 11 parts by weight, 10° C. (2.0-times solubility)) was “-” and the “Formation of trehalose crystal” value ([3]; water 100, trehalose 111, coexisting saccharide 11 parts by weight, 15° C. (1.8-times solubility)) was “-”. For the same molecule, the “Formation of trehalose crystal” value ([3]; water 100, trehalose 111, coexisting saccharide 33 parts by weight, 5° C. (2.2-times solubility)) was “-”, the “Formation of trehalose crystal” value ([3]; water 100, trehalose 111, coexisting saccharide 33 parts by weight, 10° C. (2.0-times solubility)) was “-” and the “Formation of trehalose crystal” value ([3]; water 100, trehalose 111, coexisting saccharide 33 parts by weight, 15° C. (1.8-times solubility)) was “-”. The “Formation of trehalose crystal” value ([3]; water 100, trehalose 111, coexisting saccharide 66 parts by weight, 5° C. (2.2-times solubility)) was “-”, the “Formation of trehalose crystal” value ([3]; water 100, trehalose 111, coexisting saccharide 66 parts by weight, 10° C. (2.0-times solubility)) was “-” and the “Formation of trehalose crystal” value ([3]; water 100, trehalose 111, coexisting saccharide 66 parts by weight, 15° C. (1.8-times solubility)) was “-”. For the same molecule, the “Formation of trehalose crystal” value ([3]; water 100, trehalose 138, coexisting saccharide 14 parts by weight, 5° C. (2.8-times solubility)) was “+”, the “Formation of trehalose crystal” value ([3]; water 100, trehalose 138, coexisting saccharide 14 parts by weight, 10° C. (2.5-times solubility)) was “-” and the “Formation of trehalose crystal” value ([3]; water 100, trehalose 138, coexisting saccharide 14 parts by weight, 15° C. (2.2-times solubility)) was “-”. For the same molecule, the “Formation of trehalose crystal” value ([3]; water 100, trehalose 138, coexisting saccharide 42 parts by weight, 5° C. (2.8-times solubility)) was “+”, the “Formation of trehalose crystal” value ([3]; water 100, trehalose 138, coexisting saccharide 42 parts by weight, 10° C. (2.5-times solubility)) was “-” and the “Formation of trehalose crystal” value ([3]; water 100, trehalose 138, coexisting saccharide 42 parts by weight, 15° C. (2.2-times solubility)) was “-”. The “Formation of trehalose crystal” value ([3]; water 100, trehalose 138, coexisting saccharide 83 parts by weight, 5° C. (2.8-times solubility)) was “-”, the “Formation of trehalose crystal” value ([3]; water 100, trehalose 138, coexisting saccharide 83 parts by weight, 10° C. (2.5-times solubility)) was “-” and the “Formation of trehalose crystal” value ([3]; water 100, trehalose 138, coexisting saccharide 83 parts by weight, 15° C. (2.2-times solubility)) was “-”. For the same molecule, the “Formation of trehalose crystal” value ([3]; water 100, trehalose 155, coexisting saccharide 16 parts by weight, 5° C. (3.1-times solubility)) was “+”, the “Formation of trehalose crystal” value ([3]; water 100, trehalose 155, coexisting saccharide 16 parts by weight, 10° C. (2.8-times solubility)) was “+” and the “Formation of trehalose crystal” value ([3]; water 100, trehalose 155, coexisting saccharide 16 parts by weight, 15° C. (2.5-times solubility)) was “-”. The “Formation of trehalose crystal” value ([3]; water 100, trehalose 155, coexisting saccharide 46 parts by weight, 5° C. (3.1-times solubility)) was “+”, the “Formation of trehalose crystal” value ([3]; water 100, trehalose 155, coexisting saccharide 46 parts by weight, 10° C. (2.8-times solubility)) was “+” and the “Formation of trehalose crystal” value ([3]; water 100, trehalose 155, coexisting saccharide 46 parts by weight, 15° C. (2.5-times solubility)) was “-”. For the same molecule, the “Formation of trehalose crystal” value ([3]; water 100, trehalose 155, coexisting saccharide 93 parts by weight, 5° C. (3.1-times solubility)) was “+”, the “Formation of trehalose crystal” value ([3]; water 100, trehalose 155, coexisting saccharide 93 parts by weight, 10° C. (2.8-times solubility)) was “-” and the “Formation of trehalose crystal” value ([3]; water 100, trehalose 155, coexisting saccharide 93 parts by weight, 15° C. (2.5-times solubility)) was “-”. For the same molecule, the “Formation of trehalose crystal” value ([3]; water 100, trehalose 182, coexisting saccharide 18 parts by weight, 5° C. (3.7-times solubility)) was “+”, the “Formation of trehalose crystal” value ([3]; water 100, trehalose 182, coexisting saccharide 18 parts by weight, 10° C. (3.3-times solubility)) was “+” and the “Formation of trehalose crystal” value ([3]; water 100, trehalose 182, coexisting saccharide 18 parts by weight, 15° C. (3.0-times solubility)) was “+”. The “Formation of trehalose crystal” value ([3]; water 100, trehalose 182, coexisting saccharide 55 parts by weight, 5° C. (3.7-times solubility)) was “+”, the “Formation of trehalose crystal” value ([3]; water 100, trehalose 182, coexisting saccharide 55 parts by weight, 10° C. (3.3-times solubility)) was “+” and the “Formation of trehalose crystal” value ([3]; water 100, trehalose 182, coexisting saccharide 55 parts by weight, 15° C. (3.0-times solubility)) was “+”. The “Formation of trehalose crystal” value ([3]; water 100, trehalose 182, coexisting saccharide 110 parts by weight, 5° C. (3.7-times solubility)) was “+”, the “Formation of trehalose crystal” value ([3]; water 100, trehalose 182, coexisting saccharide 110 parts by weight, 10° C. (3.3-times solubility)) was “+” and the “Formation of trehalose crystal” value ([3]; water 100, trehalose 182, coexisting saccharide 110 parts by weight, 15° C. (3.0-times solubility)) was “+”.
